Test results published in PubChem BioAssay (NCI).
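Cells were grown in 96-well plates and exposed to each compound for 48 hours at five concentrations; endpoints were interpolated linearly between bracketing concentrations, or set to the highest concentration if not reached. Abbreviation: GI50, concentration required for 50% inhibition of growth. TGI: concentration producing complete growth inhibition.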

Columns and labels:
Test in all cases: growth of human tumour cells (NCI), 48 h
[1] = system: UACC-62 melanoma
[2] = system: HOP-92 NSCLC
[3] = system: SK-OV-3 ovarian
[4] = system: CAKI-1 renal
[5] = system: M14 melanoma
[6] = system: SNB-19 CNS
[7] = system: UACC-257 melanoma
[8] = system: LOX IMVI melanoma
[9] = system: OVCAR-3 ovarian
[10] = system: DU-145 prostate
[11] = system: HT29 colon
[12] = system: NCI/ADR-RES ovarian
[13] = system: SF-539 CNS
[14] = system: NCI-H23 lung
[15] = system: IGROV1 ovarian
[16] = system: NCI-H460 lung
[17] = system: COLO 205 colon
[18] = system: NCI-H522 lung
[19] = system: UO-31 renal
[20] = system: TK-10 renal
[21] = system: MCF7 breast
[22] = system: HOP-62 NSCLC
[23] = system: MDA-MB-231 breast
[24] = system: RXF 393 renal
[25] = system: HS 578T breast
[26] = system: HCT-116 colon
[27] = system: PC-3 prostate
[28] = system: SW-620 colon
[29] = system: SNB-75 CNS

Compound `Cn1cc(C2=C(c3c4n(c5ccccc35)CCN(C(N)=S)C4)C(=O)NC2=O)c2ccccc21` has a TGI [1] of over 25 µM, a GI50 [2] of 8.82 µM and a TGI [2] of over 25 µM. It also gave a GI50 [3] of 4.51 µM, a TGI [3] of over 25 µM and a GI50 [4] of 4.85 µM. For the same compound, the TGI [4] was over 20.8 µM, the GI50 [5] was 4.71 µM and the TGI [5] was over 25 µM. For the same compound, the GI50 [6] was 12.8 µM, the TGI [6] was over 25 µM and the GI50 [7] was 7.11 µM. It also gave a TGI [7] of over 25 µM, a GI50 [8] of 2.5 µM and a TGI [8] of over 25 µM. The GI50 [9] was 1.75 µM, the TGI [9] was 7.36 µM and the GI50 [10] was 8.04 µM. For the same compound, the TGI [10] was over 23.1 µM, the GI50 [11] was 2.28 µM and the TGI [11] was over 25 µM. For the same compound, the GI50 [12] was 9.48 µM, the TGI [12] was over 25 µM and the GI50 [13] was 1.48 µM. The TGI [13] was 7.86 µM, the GI50 [14] was 7.34 µM and the TGI [14] was over 25 µM. For the same compound, the GI50 [15] was 7.82 µM, the TGI [15] was over 19.1 µM and the GI50 [16] was 6.91 µM. The TGI [16] was over 22.8 µM, the GI50 [17] was 5.97 µM and the TGI [17] was over 21.6 µM. The GI50 [18] was 1.95 µM, the TGI [18] was over 15 µM and the GI50 [19] was 4.37 µM. It also gave a TGI [19] of over 21.7 µM, a GI50 [20] of 8.64 µM and a TGI [20] of over 23.7 µM. For the same compound, the GI50 [21] was 1.24 µM, the TGI [21] was over 17.2 µM and the GI50 [22] was 6.81 µM. The TGI [22] was over 25 µM, the GI50 [23] was 6.95 µM and the TGI [23] was over 23.2 µM. It also gave a GI50 [24] of 2.34 µM, a TGI [24] of 10.6 µM and a GI50 [25] of 0.88 µM. The TGI [25] was 11.1 µM, the GI50 [26] was 4.11 µM and the TGI [26] was over 16.8 µM. It also gave a GI50 [27] of 4.92 µM, a TGI [27] of over 25 µM and a GI50 [28] of 3.45 µM. It also gave a TGI [28] of over 25 µM, a GI50 [29] of 0.36 µM and a TGI [29] of 10.6 µM.
